# Legend:
# Assay type in all cases: in vivo, C57BL/6 mice
# [1] = tested on: S1 mice (COVID-19 sequela model animals); experiment: 10% weight-loaded forced swimming test (fatigue behavioral test) after donepezil; conditions: donepezil 4.0 mg/kg/day via drinking water; 6th day after nasal S1/Adv; without donepezil, S1 mice significantly shorter; FIG. 11
# [2] = tested on: S1 mice (COVID-19 sequela model animals); experiment: Tail suspension test (depressive disorder-like behavior) after donepezil; conditions: donepezil 4.0 mg/kg/day via drinking water; 6th day after nasal S1/Adv; 10 minutes suspension; without donepezil, S1 mice significantly increased; FIG. 12
# [3] = tested on: gene expression of IL-1β and IL-6 in the brains of S1 mice; experiment: RT-qPCR of inflammatory cytokine genes in brains of S1 mice after intracerebroventricular PNU282987; conditions: PNU282987 400 nmol/mouse intracerebroventricularly on 7th day; brains collected one hour later; FIG. 14
# [4] = tested on: gene expression of zinc finger protein 36 (Zfp36) in the brains of S1 mice; experiment: RT-qPCR of Zfp36 in brains of S1 mice after PNU282987; conditions: PNU282987 400 nmol/mouse intracerebroventricularly; cDNA of Example 10; FIG. 15
# Description: Therefore, to the S1 mice and the control mice, on the 7th day after nasal administration of S1/Adv or vector/Adv, PNU282987, which is an agonist specific to the a7 nicotinic acetylcholine receptor, was administered intracerebroventricularly at a dose of 400 nmol/mouse, and the therapeutic effect on brain inflammation in the S1 mice was examined.
# One hour after the intracerebroventricular administration of PNU282987, the brains excluding the olfactory bulbs were collected, and RNA was purified with the RNeasy Mini Kit (QIAGEN). The purified RNA was used as a template to synthesize cDNA with the PrimeScript RT reagent Kit (Takara-Bio Inc.). Using the synthesized cDNA, the gene expression of interleukin-1β (IL-1β) and interleukin-6 (IL-6) was analyzed by RT-qPCR. The measurement results of 18S rRNA were used for normalization.
# To elucidate the molecular mechanism of the therapeutic effect of PNU282987 on brain inflammation in Example 10, the impact of S1 and […] on the gene expression level of zinc finger protein 36 (Zfp36), which is a host protein with anti-inflammatory effects, was examined. Specifically, using the synthesized cDNA in Example 10, the gene expression of Zfp36 was analyzed by RT-qPCR. The measurement results of 18S rRNA were used for normalization.
Compound,"swimming time, S1 mice vs control mice [1]","immobility time in the tail suspension test, S1 mice vs control mice [2]",increased expression level of IL-1β gene in the brain of S1 mice [3],increased expression level of IL-6 gene in the brain of S1 mice [3],decrease in ZFP36 gene expression in S1 mice [4]
"COc1cc2c(cc1OC)C(=O)C(CC1CCN(Cc3ccccc3)CC1)C2.Cl (centres unmarked) [donepezil, 2-[(1-benzyl-4-piperidyl)methyl]-5,6-dimethoxyindan-1-one hydrochloride]",no difference was observed,significantly decreased,–,–,–
O=C(N[C@H]1CN2CCC1CC2)c1ccc(Cl)cc1 [PNU282987],–,–,suppressed,suppressed,improved
